# ChEMBL document CHEMBL4177579, “Eudesmane sesquiterpenes from Chinese liverwort are substrates of Cdrs and display antifungal activity by targeting Erg6 and Erg11 of Candida albicans” (Bioorg Med Chem, 2017)
# Key:
# [1] = tested on: Candida albicans; assay: Antifungal activity against CDR1 deficient Candida albicans DSY448 incubated for 48 hrs by alamar blue assay; format: functional; conditions: DSY448, 48 h
# [2] = tested on: Candida albicans; assay: Antifungal activity against CDR2 deficient Candida albicans DSY653 incubated for 48 hrs by alamar blue assay; format: functional; conditions: DSY653, 48 h
# [3] = tested on: Candida albicans; assay: Inhibition of ERG6/ERG11 in CDR1 and CDR2 deficient Candida albicans DSY654 assessed as induction of alteration in sterol composition by measuring lanosterol level at 16 ug/ml incubated for 10 hrs by GC-MS method (reference value: 1.63 +/- 0.28%); set-up: scale not given: the % may be the effect or the level left
# [4] = tested on: Candida albicans; assay: Antifungal activity against MDR1 deficient Candida albicans DSY465 incubated for 48 hrs by alamar blue assay; format: functional; conditions: DSY465, 48 h
# [5] = tested on: Candida albicans; assay: Inhibition of ERG6/ERG11 in CDR1 and CDR2 deficient Candida albicans DSY654 assessed as induction of alteration in sterol composition by measuring zymosterol level at 16 ug/ml incubated for 10 hrs by GC-MS method (reference value: 2.78 +/- 0.53%); set-up: scale not given: the % may be the effect or the level left
# [6] = tested on: Candida albicans; assay: Inhibition of ERG6/ERG11 in CDR1 and CDR2 deficient Candida albicans DSY654 assessed as induction of alteration in sterol composition by measuring ergosterol level at 16 ug/ml incubated for 10 hrs by GC-MS method (reference value: 55.60 +/- 0.29%); set-up: scale not given: the % may be the effect or the level left
# [7] = tested on: Candida albicans; assay: Drug accumulation in Candida albicans SC5314 at 16 ug/ml incubated for 10 hrs in presence of 16 ug/ml CDR inhibitor RD by HPLC method relative to untreated control; format: ADME, organism-based; conditions: in vivo
# [8] = tested on: Candida albicans; assay: Antifungal activity against CDR1 and CDR2 deficient Candida albicans DSY654 incubated for 48 hrs by alamar blue assay; format: functional; conditions: DSY654, 48 h
# [9] = tested on: Candida albicans; assay: Inhibition of ERG6/ERG11 in CDR1 and CDR2 deficient Candida albicans DSY654 assessed as feedback mechanism based up-regulation of ERG6 mRNA expression at 16 ug/ml incubated for 10 hrs by qPCR method relative to untreated control
# [10] = tested on: Candida albicans; assay: Inhibition of ERG6/ERG11 in CDR1 and CDR2 deficient Candida albicans DSY654 assessed as feedback mechanism based up-regulation of ERG11 mRNA expression at 16 ug/ml incubated for 10 hrs by qPCR method relative to untreated control
# [11] = tested on: Candida albicans; assay: Drug accumulation in CDR1 and CDR2 deficient Candida albicans DSY654 at 16 ug/ml incubated for 10 hrs by HPLC method relative to wild type Candida albicans SC5314; format: ADME, organism-based; conditions: in vivo
# [12] = tested on: Candida albicans; assay: Antifungal activity against Candida albicans SC5314 incubated for 48 hrs by alamar blue assay; format: functional; conditions: SC5314, 48 h
# [13] = tested on: Candida albicans; assay: Inhibition of the yeast-to-hyphal transition in CDR1 and CDR2 deficient Candida albicans DSY654 incubated for 5 days grown in liquid RPMI 1640 medium by microphotography; format: functional, organism-based
# [14] = tested on: Candida albicans; assay: Inhibition of the yeast-to-hyphal transition in CDR1 and CDR2 deficient Candida albicans DSY654 incubated for 5 days grown in solid SD medium by microphotography; format: functional, organism-based
# [15] = tested on: Candida albicans; assay: Inhibition of ERG6/ERG11 in CDR1 and CDR2 deficient Candida albicans DSY654 assessed as induction of alteration in sterol composition by measuring fecosterol level at 16 ug/ml incubated for 10 hrs by GC-MS method (reference value: 8.36 +/- 0.3%); set-up: scale not given: the % may be the effect or the level left
Compound,MIC80 [1],MIC80 [2],Activity [3],MIC80 [4],Activity [5],Activity [6],fold change (FC) [7],MIC80 [8],fold change (FC) [9],fold change (FC) [10],fold change (FC) [11],MIC80 [12],Activity [15],inhibition [13],inhibition [14]
C=C(C)[C@@H]1C[C@@]2(C(C)=O)C[C@@H](O)C[C@@]2(C)C[C@@H]1O,> 128 µg/mL,> 128 µg/mL,–,> 128 µg/mL,–,–,–,> 128 µg/mL,–,–,–,> 128 µg/mL,–,–,–
CC1(C)C[C@H](O)C[C@@]2(C)OC(=O)C=C12 [LOLIOLIDE],> 128 µg/mL,> 128 µg/mL,–,> 128 µg/mL,–,–,–,> 128 µg/mL,–,–,–,> 128 µg/mL,–,–,–
C=C1CCC[C@@]2(C)C[C@H](O)[C@H](C(=C)C)C[C@H]12,> 128 µg/mL,> 128 µg/mL,–,> 128 µg/mL,–,–,–,64 µg/mL,–,–,–,> 128 µg/mL,–,–,–
C=C1CCC[C@@]2(C)C[C@@H]3OC(=O)[C@](CO)(OCC)[C@@H]3C[C@H]12,> 128 µg/mL,> 128 µg/mL,–,> 128 µg/mL,–,–,–,> 128 µg/mL,–,–,–,> 128 µg/mL,–,–,–
C=C1CCC[C@@]2(C)C[C@@H]3OC(=O)[C@]4(CO4)[C@@H]3C[C@H]12,> 128 µg/mL,> 128 µg/mL,–,> 128 µg/mL,–,–,–,> 128 µg/mL,–,–,–,> 128 µg/mL,–,–,–
C=C1CCC[C@@]2(C)C[C@@]3(O)OC(=O)C(C)=C3C[C@H]12,> 128 µg/mL,> 128 µg/mL,–,> 128 µg/mL,–,–,–,64 µg/mL,–,–,–,> 128 µg/mL,–,–,–
C=C(CO)[C@H]1CC[C@]2(C)CCCC(=C)[C@H]2[C@H]1O,> 128 µg/mL,> 128 µg/mL,–,> 128 µg/mL,–,–,–,64 µg/mL,–,–,–,> 128 µg/mL,–,–,–
CC1=CC(=O)C[C@@]2(C)CC[C@](O)(C(C)C)C[C@H]12,> 128 µg/mL,> 128 µg/mL,–,> 128 µg/mL,–,–,–,> 128 µg/mL,–,–,–,> 128 µg/mL,–,–,–

# Further lines, with some results ahead:
MIC80 [1],MIC80 [2],Activity [3],MIC80 [4],Activity [5],Activity [6],fold change (FC) [7],MIC80 [8],fold change (FC) [9],fold change (FC) [10],fold change (FC) [11],MIC80 [12],Activity [15],Compound,inhibition [13],inhibition [14]
> 128 µg/mL,> 128 µg/mL,17.2%,> 128 µg/mL,10.8%,33.7%,10.4,16 µg/mL,9.3,2.7,4.95,> 128 µg/mL,6.16%,C=C1CCC[C@@]2(C)C[C@@H]3OC(=O)C(=C)[C@@H]3C[C@H]12,Dose-dependent effect,Dose-dependent effect
> 128 µg/mL,> 128 µg/mL,–,> 128 µg/mL,–,–,–,32 µg/mL,–,–,–,> 128 µg/mL,–,C=C1CCC[C@@]2(C)C[C@@H]3OC(=O)[C@@](C)(O)[C@@H]3C[C@H]12,–,–
> 128 µg/mL,> 128 µg/mL,–,> 128 µg/mL,–,–,–,> 128 µg/mL,–,–,–,> 128 µg/mL,–,C=C1CCC[C@@]2(C)C[C@@H]3OC(=O)[C@@H](C)[C@@H]3C[C@H]12,–,–
> 128 µg/mL,> 128 µg/mL,–,> 128 µg/mL,–,–,–,> 128 µg/mL,–,–,–,> 128 µg/mL,–,CC1=CCC[C@@]2(C)C[C@@H]3OC(=O)[C@H](C)[C@@H]3C[C@H]12,–,–
